# Test results published in ChEMBL document CHEMBL1154330, “Cucurbitane-type triterpenoids from the African plant Momordica balsamina” (J Nat Prod, 2009).
# Test system: MCF7
# Assay: Cytotoxicity against human MCF7 cells after 24 hrs by MTT assay
# Assay type: functional, cell-based
# Conditions: MCF7, 24 h
row,Compound,IC50
1,CC(C)=C[C@H](O)C[C@@H](C)[C@H]1CC[C@@]2(C)[C@@H]3[C@@H](O)C=C4[C@@H](CC[C@H](O)[C@]4(C)CO)[C@]3(C)CC[C@]12C [BALSAMINOL A],40 µM
2,C=C(C)[C@@H](O)[C@H](O)C[C@@H](C)[C@H]1CC[C@@]2(C)[C@@H]3[C@@H](O)C=C4[C@@H](CC[C@H](O)[C@]4(C)CO)[C@]3(C)CC[C@]12C [BALSAMINAPENTAOL A],47 µM
3,C[C@H](C/C=C/C(C)(C)O)[C@H]1CC[C@@]2(C)[C@@H]3[C@@H](O)C=C4[C@@H](CC[C@H](O)C4(C)C)[C@]3(C)C[C@@H](O)[C@]12C [CUCURBALSAMINOL A],> 133 µM
4,CC(C)=C[C@H](O)C[C@@H](C)[C@H]1CC[C@@]2(C)[C@@H]3C=C[C@@]45OC[C@]3(CC[C@]12C)[C@@H]4CC[C@H](O)C5(C)C [KARAVILAGENIN E],30.7 µM
5,C[C@H](C/C=C/C(C)(C)O)[C@H]1CC[C@@]2(C)[C@@H]3[C@@H](O)C=C4[C@@H](CC[C@H](O)C4(C)C)[C@]3(C)CC[C@]12C,45.3 µM
6,CO[C@H]1C=C2[C@@H](CC[C@H](O)[C@]2(C)CO)[C@]2(C)CC[C@]3(C)[C@@H]([C@H](C)C[C@@H](O)C=C(C)C)CC[C@@]3(C)[C@H]12 [BALSAMINOL B],55.3 µM
7,COc1cccc2c1C(=O)c1c(O)c3c(c(O)c1C2=O)C[C@@](O)(C(=O)CO)C[C@@H]3O[C@H]1C[C@H](N)[C@H](O)[C@H](C)O1 [DOXORUBICIN],0.92 µM
